Experiments:
Experiment in all cases: cells
COLO-800 = assay type: functional, cell-based, Homo sapiens; settings: Homo sapiens, COLO-800;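 note: growth inhibition of COLO-800 cells, read out with a cell viability assay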
Description: SANGER: Inhibition of human COLO-800 cell growth in a cell viability assay.

Lu-65 = assay type: functional, cell-based, Homo sapiens; settings: Homo sapiens, Lu-65;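 note: growth inhibition of Lu-65 cancer cells, read out by a cell viability assay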
Description: SANGER: Inhibition of human LU-65 cell growth in a cell viability assay.

A4-Fuk = assay type: functional, cell-based, Homo sapiens; settings: Homo sapiens, A4-Fuk;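 note: growth inhibition of A4-Fuk cells, read out by a cell viability assay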
Description: SANGER: Inhibition of human A4-Fuk cell growth in a cell viability assay.

Becker = assay type: functional, cell-based, Homo sapiens; settings: Homo sapiens, Becker;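 note: growth inhibition of Becker cells, read out with a cell viability assay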
Description: SANGER: Inhibition of human Becker cell growth in a cell viability assay.

KLE = assay type: functional, cell-based, Homo sapiens; settings: Homo sapiens, KLE;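 note: growth inhibition of human KLE cells, read out with a cell viability assay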
Description: SANGER: Inhibition of human KLE cell growth in a cell viability assay.

CTV-1 = assay type: functional, cell-based, Homo sapiens; settings: Homo sapiens, CTV-1;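 note: growth inhibition of the cell line, read out with a cell viability assay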
Description: SANGER: Inhibition of human CTV-1 cell growth in a cell viability assay.

EW-3 = assay type: functional, cell-based, Homo sapiens; settings: Homo sapiens, EW-3;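 note: cell viability assay read-out, IC50 reflects inhibition of growth of the EW-3 cells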
Description: SANGER: Inhibition of human EW-3 cell growth in a cell viability assay.

NCI-H1299 = assay type: functional, cell-based, Homo sapiens; settings: Homo sapiens, NCI-H1299;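 note: growth inhibition of human NCI-H1299 cells, read out by a cell viability assay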
Description: SANGER: Inhibition of human NCI-H1299 cell growth in a cell viability assay.

NCI-N87 = assay type: functional, cell-based, Homo sapiens; settings: Homo sapiens, NCI-N87;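 note: growth inhibition of human NCI-N87 cells, read out with a cell viability assay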
Description: SANGER: Inhibition of human NCI-N87 cell growth in a cell viability assay.

TE-12 = assay type: functional, cell-based, Homo sapiens; settings: Homo sapiens, TE-12;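 note: growth inhibition of TE-12 cells, read out by a cell viability assay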
Description: SANGER: Inhibition of human TE-12 cell growth in a cell viability assay.

HEL = assay type: functional, cell-based, Homo sapiens; settings: Homo sapiens, HEL;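 note: growth inhibition of HEL cells, read out with a cell viability assay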
Description: SANGER: Inhibition of human HEL cell growth in a cell viability assay.

MZ1-PC = assay type: functional, cell-based, Homo sapiens; settings: Homo sapiens, MZ1-PC;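 note: cell viability assay measuring growth inhibition of human MZ1-PC cells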
Description: SANGER: Inhibition of human MZ1-PC cell growth in a cell viability assay.

GT3TKB = assay type: functional, cell-based, Homo sapiens; settings: Homo sapiens, GT3TKB;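 note: growth inhibition of the cell line, read out with a cell viability assay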
Description: SANGER: Inhibition of human GT3TKB cell growth in a cell viability assay.

SCH = assay type: functional, cell-based, Homo sapiens; settings: Homo sapiens, SCH;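 note: growth inhibition of human SCH cells, read out in a cell viability assay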
Description: SANGER: Inhibition of human SCH cell growth in a cell viability assay.

BE-13 = assay type: functional, cell-based, Homo sapiens; settings: Homo sapiens, BE-13;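 note: growth inhibition of human BE-13 cells, measured with a cell viability assay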
Description: SANGER: Inhibition of human BE-13 cell growth in a cell viability assay.

NCI-H209 = assay type: functional, cell-based, Homo sapiens; settings: Homo sapiens, NCI-H209;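 note: growth inhibition of human NCI-H209 cells, measured by a cell viability assay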
Description: SANGER: Inhibition of human NCI-H209 cell growth in a cell viability assay.

ML-2 = assay type: functional, cell-based, Homo sapiens; settings: Homo sapiens, ML-2;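 note: growth inhibition of ML-2 cells, measured with a cell viability readout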
Description: SANGER: Inhibition of human ML-2 cell growth in a cell viability assay.

L-428 = assay type: functional, cell-based, Homo sapiens; settings: Homo sapiens, L-428
Description: SANGER: Inhibition of human L-428 cell growth in a cell viability assay.

NCI-H1770 = assay type: functional, cell-based, Homo sapiens; settings: Homo sapiens, NCI-H1770;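 note: growth inhibition of NCI-H1770 cells determined with a viability readout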
Description: SANGER: Inhibition of human NCI-H1770 cell growth in a cell viability assay.

LB1047-RCC = assay type: functional, cell-based, Homo sapiens; settings: Homo sapiens, LB1047-RCC;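 note: inhibition of cell growth, determined with a cell viability assay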
Description: SANGER: Inhibition of human LB1047-RCC cell growth in a cell viability assay.

ES8 = assay type: functional, cell-based, Homo sapiens; settings: Homo sapiens, ES8;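 note: growth inhibition of human ES8 cells, read out with a cell viability assay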
Description: SANGER: Inhibition of human ES8 cell growth in a cell viability assay.

GI-1 = assay type: functional, cell-based, Homo sapiens; settings: Homo sapiens, GI-1;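 note: growth inhibition of human GI-1 cells, measured with a cell viability readout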
Description: SANGER: Inhibition of human GI-1 cell growth in a cell viability assay.

KP-N-YS = assay type: functional, cell-based, Homo sapiens; settings: Homo sapiens, KP-N-YS;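 note: cell viability assay measuring inhibition of cell line growth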
Description: SANGER: Inhibition of human KP-N-YS cell growth in a cell viability assay.

SF-126 = assay type: functional, cell-based, Homo sapiens; settings: Homo sapiens, SF-126;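 note: growth inhibition of human SF126 cells, read out with a cell viability assay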
Description: SANGER: Inhibition of human SF126 cell growth in a cell viability assay.

D-502MG = assay type: functional, cell-based, Homo sapiens; settings: Homo sapiens, D-502MG
Description: SANGER: Inhibition of human D-502MG cell growth in a cell viability assay.

GCIY = assay type: functional, cell-based, Homo sapiens; settings: Homo sapiens, GCIY;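 note: growth inhibition of the human GCIY cell line, read out by a cell viability assay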
Description: SANGER: Inhibition of human GCIY cell growth in a cell viability assay.

HCC2157 = assay type: functional, cell-based, Homo sapiens; settings: Homo sapiens, HCC2157;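 note: growth inhibition of the cancer cell line, read out as cell viability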
Description: SANGER: Inhibition of human HCC2157 cell growth in a cell viability assay.

ATN-1 = assay type: functional, cell-based, Homo sapiens; settings: Homo sapiens, ATN-1;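 note: growth inhibition of human ATN-1 cells, read out with a cell viability assay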
Description: SANGER: Inhibition of human ATN-1 cell growth in a cell viability assay.

NCI-H1650 = assay type: functional, cell-based, Homo sapiens; settings: Homo sapiens, NCI-H1650;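 note: growth inhibition of human NCI-H1650 cells measured by a cell viability assay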
Description: SANGER: Inhibition of human NCI-H1650 cell growth in a cell viability assay.

HCE-T = assay type: functional, cell-based, Homo sapiens; settings: Homo sapiens, HCE-T;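 note: cell viability assay read-out, reporting inhibition of HCE-T cell growth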
Description: SANGER: Inhibition of human HCE-T cell growth in a cell viability assay.

EW-1 = assay type: functional, cell-based, Homo sapiens; settings: Homo sapiens, EW-1;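 note: growth inhibition of the human EW-1 cell line, read out by a cell viability assay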
Description: SANGER: Inhibition of human EW-1 cell growth in a cell viability assay.

ETK-1 = assay type: functional, cell-based, Homo sapiens; settings: Homo sapiens, ETK-1;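 note: growth inhibition of human ETK-1 cells, read out with a cell viability assay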
Description: SANGER: Inhibition of human ETK-1 cell growth in a cell viability assay.

GOTO = assay type: functional, cell-based, Homo sapiens; settings: Homo sapiens, GOTO;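 note: growth inhibition of GOTO cells, read out by a cell viability assay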
Description: SANGER: Inhibition of human GOTO cell growth in a cell viability assay.

NB13 = assay type: functional, cell-based, Homo sapiens; settings: Homo sapiens, NB13;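 note: cell viability readout measuring growth inhibition of human NB13 cells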
Description: SANGER: Inhibition of human NB13 cell growth in a cell viability assay.

SHP77 = assay type: functional, cell-based, Homo sapiens, SHP-77; settings: Homo sapiens, SHP77;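 note: growth inhibition of human SHP-77 cells measured by a cell viability assay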
Description: SANGER: Inhibition of human SHP-77 cell growth in a cell viability assay.

ES6 = assay type: functional, cell-based, Homo sapiens; settings: Homo sapiens, ES6;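 note: growth inhibition of human ES6 cells, read out with a cell viability assay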
Description: SANGER: Inhibition of human ES6 cell growth in a cell viability assay.

LU-139 = assay type: functional, cell-based, Homo sapiens; settings: Homo sapiens, LU-139
Description: SANGER: Inhibition of human LU-139 cell growth in a cell viability assay.

NB10 = assay type: functional, cell-based, Homo sapiens; settings: Homo sapiens, NB10;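 note: growth inhibition of NB10 cells, read out by a cell viability assay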
Description: SANGER: Inhibition of human NB10 cell growth in a cell viability assay.

SK-LMS-1 = assay type: functional, cell-based, Homo sapiens; settings: Homo sapiens, SK-LMS-1;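 note: growth inhibition of human SK-LMS-1 cells, read out with a cell viability assay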
Description: SANGER: Inhibition of human SK-LMS-1 cell growth in a cell viability assay.

NEC8 = assay type: functional, cell-based, Homo sapiens; settings: Homo sapiens, NEC8;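 note: growth inhibition of human NEC8 cells, read out by a cell viability assay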
Description: SANGER: Inhibition of human NEC8 cell growth in a cell viability assay.

HCE-4 = assay type: functional, cell-based, Homo sapiens; settings: Homo sapiens, HCE-4;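 note: cell viability assay measuring inhibition of growth in the human HCE-4 cell line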
Description: SANGER: Inhibition of human HCE-4 cell growth in a cell viability assay.

BV-173 = assay type: functional, cell-based, Homo sapiens; settings: Homo sapiens, BV-173
Description: SANGER: Inhibition of human BV-173 cell growth in a cell viability assay.

AM-38 = assay type: functional, cell-based, Homo sapiens; settings: Homo sapiens, AM-38;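 note: growth inhibition of AM-38 cells of human origin, read out by a cell viability assay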
Description: SANGER: Inhibition of human AM-38 cell growth in a cell viability assay.

RCC10RGB = assay type: functional, cell-based, Homo sapiens; settings: Homo sapiens, RCC10RGB;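 note: growth inhibition of human RCC10RGB cells, read out by a cell viability assay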
Description: SANGER: Inhibition of human RCC10RGB cell growth in a cell viability assay.

Calu-6 = assay type: functional, cell-based, Homo sapiens; settings: Homo sapiens, Calu-6;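 note: growth of human Calu-6 cells, read out by a cell viability assay, IC50 marking inhibition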
Description: SANGER: Inhibition of human Calu-6 cell growth in a cell viability assay.

NCI-H446 = assay type: functional, cell-based, Homo sapiens; settings: Homo sapiens, NCI-H446;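 note: growth inhibition of NCI-H446 cells determined by a cell viability assay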
Description: SANGER: Inhibition of human NCI-H446 cell growth in a cell viability assay.

NCI-H2126 = assay type: functional, cell-based, Homo sapiens; settings: Homo sapiens, NCI-H2126;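 note: growth inhibition of the cancer cell line, determined with a cell viability readout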
Description: SANGER: Inhibition of human NCI-H2126 cell growth in a cell viability assay.

NCI-H226 = assay type: functional, cell-based, Homo sapiens; settings: Homo sapiens, NCI-H226;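 note: cell viability read-out used to gauge growth inhibition of the cells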
Description: SANGER: Inhibition of human NCI-H226 cell growth in a cell viability assay.

SK-MEL-1 = assay type: functional, cell-based, Homo sapiens; settings: Homo sapiens, SK-MEL-1;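 note: growth inhibition of human SK-MEL-1 cells, read out by a cell viability assay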
Description: SANGER: Inhibition of human SK-MEL-1 cell growth in a cell viability assay.

NB69 = assay type: functional, cell-based, Homo sapiens; settings: Homo sapiens, NB69;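 note: growth inhibition of NB69 cells, determined by a cell viability assay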
Description: SANGER: Inhibition of human NB69 cell growth in a cell viability assay.

CCC/C=C/C=C/C(=O)O[C@H]1/C(=C/C(=O)OC)C[C@H]2C[C@H]([C@@H](C)O)OC(=O)C[C@H](O)C[C@@H]3C[C@H](OC(C)=O)C(C)(C)[C@](O)(C[C@@H]4C/C(=C/C(=O)OC)C[C@H](/C=C/C(C)(C)[C@]1(O)O2)O4)O3 [BRYOSTATIN 1]
IC50 (COLO-800): > 8 nM | IC50 (Lu-65): > 8 nM | IC50 (A4-Fuk): > 8 nM | IC50 (Becker): > 8 nM | IC50 (KLE): > 8 nM | IC50 (CTV-1): > 8 nM | IC50 (EW-3): > 8 nM | IC50 (NCI-H1299): > 8 nM | IC50 (NCI-N87): > 8 nM | IC50 (TE-12): > 8 nM | IC50 (HEL): > 8 nM | IC50 (MZ1-PC): > 0.008 µM | IC50 (GT3TKB): > 0.008 µM | IC50 (SCH): > 8 nM | IC50 (BE-13): > 8 nM | IC50 (NCI-H209): > 8 nM | IC50 (ML-2): > 8 nM | IC50 (L-428): > 8 nM | IC50 (NCI-H1770): > 8 nM | IC50 (LB1047-RCC): > 0.008 µM | IC50 (ES8): > 8 nM | IC50 (GI-1): > 0.008 µM | IC50 (KP-N-YS): > 8 nM | IC50 (SF-126): > 8 nM | IC50 (D-502MG): > 0.008 µM | IC50 (GCIY): > 0.008 µM | IC50 (HCC2157): > 8 nM | IC50 (ATN-1): > 0.008 µM | IC50 (NCI-H1650): > 8 nM | IC50 (HCE-T): > 8 nM | IC50 (EW-1): > 8 nM | IC50 (ETK-1): > 0.008 µM | IC50 (GOTO): > 0.008 µM | IC50 (NB13): > 8 nM | IC50 (SHP77): > 8 nM | IC50 (ES6): > 8 nM | IC50 (LU-139): > 8 nM | IC50 (NB10): > 8 nM | IC50 (SK-LMS-1): > 8 nM | IC50 (NEC8): > 8 nM | IC50 (HCE-4): > 8 nM | IC50 (BV-173): > 8 nM | IC50 (AM-38): > 8 nM | IC50 (RCC10RGB): > 8 nM | IC50 (Calu-6): > 8 nM | IC50 (NCI-H446): > 0.008 µM | IC50 (NCI-H2126): > 8 nM | IC50 (NCI-H226): > 8 nM | IC50 (SK-MEL-1): > 8 nM | IC50 (NB69): > 8 nM

CC(C)CCN1c2nc(Nc3cc(F)c(O)c(F)c3)ncc2N(C)C(=O)C1C (stereo not given)
IC50 (COLO-800): 2540 nM | IC50 (Lu-65): > 5000 nM | IC50 (A4-Fuk): > 5000 nM | IC50 (Becker): 2660 nM | IC50 (KLE): > 5000 nM | IC50 (CTV-1): 479 nM | IC50 (EW-3): 35.8 nM | IC50 (NCI-H1299): 2940 nM | IC50 (NCI-N87): > 5000 nM | IC50 (TE-12): > 5000 nM | IC50 (HEL): 2700 nM | IC50 (MZ1-PC): 3.83 µM | IC50 (GT3TKB): 3.76 µM | IC50 (SCH): > 5000 nM | IC50 (BE-13): 1590 nM | IC50 (NCI-H209): 768 nM | IC50 (ML-2): 856 nM | IC50 (L-428): > 5000 nM | IC50 (NCI-H1770): > 5000 nM | IC50 (LB1047-RCC): 4.1 µM | IC50 (ES8): 1880 nM | IC50 (GI-1): 3.15 µM | IC50 (KP-N-YS): 682 nM | IC50 (SF-126): > 5000 nM | IC50 (D-502MG): 3.07 µM | IC50 (GCIY): 4.71 µM | IC50 (HCC2157): > 5000 nM | IC50 (ATN-1): 4.42 µM | IC50 (NCI-H1650): > 5000 nM | IC50 (HCE-T): > 5000 nM | IC50 (EW-1): 2750 nM | IC50 (ETK-1): 4.36 µM | IC50 (GOTO): 3.28 µM | IC50 (NB13): > 5000 nM | IC50 (SHP77): > 5000 nM | IC50 (ES6): > 5000 nM | IC50 (LU-139): 850 nM | IC50 (NB10): 1780 nM | IC50 (SK-LMS-1): > 5000 nM | IC50 (NEC8): 1700 nM | IC50 (HCE-4): > 5000 nM | IC50 (BV-173): 1990 nM | IC50 (AM-38): > 5000 nM | IC50 (RCC10RGB): > 5000 nM | IC50 (Calu-6): > 5000 nM | IC50 (NCI-H446): 3.68 µM | IC50 (NCI-H2126): > 5000 nM | IC50 (NCI-H226): > 5000 nM | IC50 (SK-MEL-1): > 5000 nM | IC50 (NB69): > 5000 nM

— ChEMBL document CHEMBL1201861, “Genomics of Drug Sensitity in Cancer screening data, Wellcome Trust Sanger Institute”
